How the values were obtained:
[1] = tested on: production of reverse transcriptase (HIV); settings: J. Med. Chem., 32, 1135 (1989), cited from earlier work
[2] = tested on: cells; settings: J. Med. Chem., 32, 1135 (1989), cited from earlier work
[3] = tested on: HIV; settings: J. Biol. Chem., 263, 5870 (1988); cited from earlier work
[4] = tested on: cells; settings: read-out: concentration range from which cytotoxicity appears; J. Biol. Chem., 263, 5870 (1988); cited from earlier work
[5] = tested on: HIV; settings: compared with AZT; cited from earlier work
[6] = tested on: AIDS virus (HIV) in ATH8 cells; test: Antivirus test (1), anti-HIV effect in ATH8 cells; format: cell-based; settings: for IC100: read-out: complete inhibition concentration for HIV
Procedure: (§1) Namely, after pretreatment beforehand with polybrene (made by Sigma Co.), 2×10^5 ATH 8 cells were exposed to AIDS virus (HIV) for 45 minutes to infect (the number of HIV was made so as to be 2000 per ATH8 cell). Successively, the infected cells were suspended into every 1 ml of respective media containing interleukin 2 (IL-2) and being added with anti-HIV agent in various concentrations and into 1 ml of medium containing IL-2 alone and not containing anti-HIV agent at any rate.
(§2) These were cultured at 37° C. in a mixed gas comprising 5% carbon dioxide and 95% air.
(§3) The cells for reference were similarly prepared except allowing to infect with AIDS virus (HIV).
(§4) After 5 days, whole number of cells was counted by hemocytometer method based on the dyeing with trypan blue.

[7] = Lipophilicity test, partition coefficient by shake-flask method; format: physicochemical; settings: n-octanol / phosphate buffer pH 7.4, shake-flask, HPLC
Procedure: As a method for determining the extent of lipophilicity, it is a general rule to measure the partition coefficient (P) in water-n-octanol. Thus, the lipophilicity test of 2-amino-6-chloropurine-9-β-2',3'-dideoxyribofuranoside concerned with the invention was performed by the method of using partition coefficient P by shake-flask method (J. Pharm. Pharmacol., 39, 253 (1987)).
Namely, n-octanol and phosphate buffer (pH 7.4) were transferred into a separatory funnel and shaken for 3 hours with a shaker, which was then allowed to stand for 12 hours to separate respectively. Into 50 ml of n-octanol-saturated buffer thus obtained was dissolved 1 mg of sample (dried for 12 hours at 50° C. in a vacuum dryer) and 0.5 ml of this solution were taken as a sample for quantitative determination. Remaining 49.5 ml of n-octanol-saturated buffer and 49.5 ml of buffer-saturated n-octanol were transferred into a separatory funnel.
After shaking for 3 hours with a shaker, this was allowed to stand for 2 hours and then centrifuged (1500 rpm, 15 minutes). After gently removing the n-octanol layer, the sample for quantitative determination was taken.
The partition coefficient P is defined as follows:
Co: Concentration of sample in buffer before shaking
Cw: Concentration of sample in buffer after shaking

[8] = tested on: p24 gag protein of HIV (H9 cells); test: Antivirus test (2), expression of p24 gag protein in HIV-infected H9 cells; format: cell-based
Procedure: Namely, HIV-infected H9 cells added with anti-HIV agent in various concentrations were cultured for 8 days and 9 days, respectively, to assay the rate (%) of the target H9 cells expressing p24 gag protein of HIV. Measurement was made by a murine monoclonal antibody (M26) method.

[9] = Cytotoxicity in the anti-HIV test (ATH8 cells); format: cell-based; settings: human, ath8 cells; DMSO present (1% at 200 μM); attributed to influence of DMSO; read-out: concentration at which cytotoxicity appears
Procedure: as §1, §2, §3, §4

[10] = tested on: ATH8 cells; test: Cytotoxicity in the anti-HIV test (ATH8 cells); format: cell-based; settings: in words
Procedure: as §1, §2, §3, §4

[11] = Human immunodeficiency virus 1, ATH-8, 120 h, ATH8 cells, 5 days

Nc1nc(Cl)nc2c1ncn2[C@H]1C=C[C@@H](CO)O1 [2-chloro-2',3'-didehydro-2',3'-dideoxyadenosine]
inhibition of the production of reverse transcriptase at 20 μM ([1]; 20 μM): 75% | toxicity at a concentration over 20 μM ([2]; over 20 μM): the toxicity is so strong that the test cannot be performed

Nc1nc(F)nc2c1ncn2[C@H]1CC[C@@H](CO)O1 [2-fluoro-2',3'-dideoxyadenosine]
concentration exhibiting HIV inhibition effect [3]: 1 to 10 µM | MCC [4]: 1 to 10 µM

Nc1ncnc2c1ncn2[C@H]1CC[C@@H](CO)O1 [DDA, 2',3'-dideoxyadenosine]
anti-HIV effect in vitro [5]: higher anti-HIV effect in vitro than that of AZT

Nc1nc2c(ncn2[C@H]2CC[C@@H](CO)O2)c(=O)[nH]1 [DDG, 2'3'-dideoxyguanosine]
IC100 [6, 11]: 10 µM | logD [7]: -1.06

Nc1nc(Br)nc2c1ncn2[C@H]1CC[C@@H](CO)O1 [2-bromo-2',3'-dideoxyadenosine]
concentration exhibiting HIV inhibition effect [3]: 1 to 10 µM | MCC [4]: 1 to 10 µM

Nc1ccn([C@H]2CC[C@@H](CO)O2)c(=O)n1 [DDC, 2',3'-dideoxycytidine]
anti-HIV effect in vitro [5]: higher anti-HIV effect in vitro than that of AZT

Nc1nc(Cl)nc2c1ncn2[C@H]1CC[C@@H](CO)O1 [2-chloro-2',3'-dideoxyadenosine]
concentration exhibiting HIV inhibition effect [3]: 1 to 10 µM | anti-HIV effect at 2 μM ([1]; 2 μM): no effect at all | inhibition of the production of reverse transcriptase at 100 μM ([1]; 100 μM): 97% | MCC [4]: 1 to 10 µM | cytotoxicity at 100 μM ([2]; 100 μM): 23%

Nc1nc(Cl)c2ncn([C@H]3CC[C@@H](CO)O3)c2n1 [6-Cl-DDG, 2-amino-6-chloropurine-9-β-D-2',3'-dideoxyribofuranoside]
anti-HIV effect compared with DDG ([6]; ATH8 cells, vs DDG): equal or higher anti-HIV effect compared with DDG | IC100 [6, 11]: 5 µM | minimal effective concentration ([6]; Human immunodeficiency virus 1, ATH-8, 120 h, ATH8 cells, 5 days, read-out: concentration exhibiting HIV inhibition effect): 2 µM | anti-AIDS virus effect (anti-HIV effect) ([6]; in words): high anti-AIDS virus effect (anti-HIV effect) | IC100 ([8]; Human immunodeficiency virus 1, 8th and 9th day, read-out: concentration almost completely inhibiting the expressing of p24): 10 µM | minimal effective concentration ([8]; Human immunodeficiency virus 1, 8th and 9th day, read-out: concentration exhibiting inhibition effect on the expressing of p24 antigen): 3 µM | anti-HIV effect compared with DDG ([8]; vs DDG): equal or higher anti-HIV effect compared with DDG | MCC at 120 h [9]: > 200 µM | cytotoxicity [10]: low cytotoxicity

OC[C@@H]1CC[C@H](n2cnc3c(O)ncnc32)O1 [DDI, 2',3'-dideoxyinosine]
logD [7]: -1.22 | anti-HIV effect in vitro [5]: higher anti-HIV effect in vitro than that of AZT

— patent US5580860A, “Pharmaceutical composition containing 2-amino-6-chloropurine-9-β-D-2',3'-dideoxyribofuranoxside” (priority 1989, dated 1996)
